Source: article PMC2796783, “Pharmacological Characterization of Inositol 1,4,5-tris Phosphate Receptors in Human Platelet Membranes” (Cardiovascular Psychiatry and Neurology, 2009)

What was measured:
[1] = test system: T1, Ins(1,4,5)P3 receptors in human platelet membranes; test: displacement of […] [3H]Ins([…])P3, filtration, log probit analysis; assay type: binding; details: 20 nM [3H]Ins(1,4,5)P3, 50 mM Tris-HCl pH 8.5, 1 mM EDTA, 4 °C, 10 min
T1 construct: gene ITPR1; native receptor in crude platelet membranes of healthy human subjects; not purified; tetrameric channel

[2] = test system: T1, Ins(1,4,5)P3 receptors in human platelet membranes; test: radioligand saturation binding, filtration, Scatchard (EBDA); details: 50 mM Tris-HCl pH 8.5, 1 mM EDTA, 1 mM 2-mercaptoethanol, 4 °C, 10 min; labelled compound; crude platelet membranes; single site

Row | IC50 [1] [nM] | IC50 ([1]; error exceeds the value) [nM] | Compound | Kd [2] [nM]
1 | 1900 ± 680 |  | O=P(O)(O)O[C@H]1[C@@H](O)[C@H](O)[C@@H](OP(=O)(O)O)[C@H](OP(=O)(O)O)[C@H]1O [D-Ins(2,4,5)P3] | 
2 | 4970 ± 1830 |  | O=P(O)(O)O[C@@H]1[C@@H](O)[C@@H](O)[C@@H](OP(=O)(O)OC[C@H](O)CO)[C@H](O)[C@H]1OP(=O)(O)O [GPIP2] | 
3 | 354000 ± 37000 |  | O=P(O)(O)O[C@@H]1[C@@H](O)[C@H](OP(=O)(O)O)[C@@H](OP(=O)(O)O)[C@H](O)[C@@H]1O [L-Ins(1,4,5)P3] | 
4 |  | 300 ± 500 | O=P(O)(O)O[C@@H]1[C@H](O)[C@H](O)[C@@H](OP(=O)(O)O)[C@H](OP(=O)(O)O)[C@H]1O [[^3H]Ins(1,4,5)P3] | 22.1 ± 2.34
